Structures can show the parent of a compound that is named as a salt. Where two headings read alike, the source gives them in different places.
Legend:
P-388 leukemia cells = experiment: Antitumor activity: P-388 leukemia cells inoculated intraperitoneally, drug administered intravenously, BDF1 mice; format: in vivo; details: for response vs control in vivo at 60 mg/kg / response vs control in vivo at 40 mg/kg / response vs control in vivo at 80 mg/kg / response vs control in vivo at 20 mg/kg / response vs control in vivo at 50 mg/kg: Mus musculus, P388, iv, read-out: T/C (%) of MST; for response vs control in vivo at 60 mg/kg: dose e: 60 mg/kg × 3, i.v. on days 1, 5 and 9; for response vs control in vivo at 20 mg/kg: dose b: 20 mg/kg × 3, i.v. on days 1, 5 and 9; for response vs control in vivo at 50 mg/kg: dose d: 50 mg/kg × 3, i.v. on days 1, 5 and 9
Procedure, shortened: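 Drug dosing was intravenous on the first, fifth and ninth days after intraperitoneal inoculation of P-388 leukemia cells (1×10^6 per mouse) into BDF1 mice. Vehicles were physiological saline alone, or saline with small amounts of sodium carboxymethyl cellulose or Tween-80.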

[1] = Acute toxicity, intravenous (once), ddY mice; format: in vivo; details: mouse, in vivo, formulated per Preparation Example
Description: In Table 7 are shown acute toxicity values (LD50, mg/kg) in ddY mice in the case of intravenously administering (once) each of the compounds of this invention in the form of preparations shown in the Preparation Examples shown in Table 7.

[2] = dose c: 40 mg/kg × 3, i.v. on days 1, 5 and 9, BDF1 mice, P-388 i.p.
[3] = dose f: 80 mg/kg × 3, i.v. on days 1, 5 and 9, BDF1 mice, P-388 i.p.

SMILES | LD50 ([1]; iv) | response vs control in vivo at 40 mg/kg (P-388 leukemia cells; [2]) | response vs control in vivo at 20 mg/kg (P-388 leukemia cells; BDF1 mice, P-388 i.p.) | response vs control in vivo at 80 mg/kg (P-388 leukemia cells; [3]) | also measured
COC1C(O)C(C)OC(OC2C(Oc3cccc4c(OC(C)=O)c5c(=O)oc6ccc(C)c7c(=O)oc(c34)c5c67)OC(C)C3OC(C)(C)OC32)C1O (stereo not drawn) [Compound No. 203, 6-O-Acetyl-3',4'-O-Isopropylidene-Chartreusin] | ≥ 60 mg/kg | – | – | – | response vs control in vivo at 60 mg/kg (P-388 leukemia cells; BDF1 mice, P-388 i.p.): 180%
CCC1O[C@H]2[C@@H](O1)[C@@H](C)O[C@@H](Oc1cccc3c(OC(=O)C(C)CC)c4c(=O)oc5ccc(C)c6c(=O)oc(c13)c4c56)[C@@H]2O[C@H]1O[C@H](C)[C@H](O)[C@H](OC)[C@H]1O (stereo partly drawn) [compound 219] | – | – | – | – | response vs control in vivo at 40 mg/kg (P-388 leukemia cells): 130%; response vs control in vivo at 80 mg/kg (P-388 leukemia cells): 182%; LD50 [1]: ≥ 80 mg/kg
COC(=O)CCC(=O)Oc1c2cccc(O[C@@H]3O[C@H](C)[C@@H]4OC(C)(C)O[C@@H]4[C@H]3O[C@H]3O[C@H](C)[C@H](O)[C@H](OC)[C@H]3O)c2c2oc(=O)c3c(C)ccc4oc(=O)c1c2c43 [compound 202] | ≥ 60 mg/kg | 174% | – | – | –
COC1C(O)C(C)OC(OC2C(Oc3cccc4c(OC(=O)CCS(C)(=O)=O)c5c(=O)oc6ccc(C)c7c(=O)oc(c34)c5c67)OC(C)C3OC(c4ccccc4)OC32)C1O (stereo not drawn) [Compound No. 168] | ≥ 40 mg/kg | – | 167% | – | –
C=CCCC(=O)Oc1c2cccc(OC3OC(C)C4OC(C)(C)OC4C3OC3OC(C)C(O)C(OC)C3O)c2c2oc(=O)c3c(C)ccc4oc(=O)c1c2c43 (stereo not drawn) [Compound No. 175] | ≥ 80 mg/kg | 145% | – | 208% | –
CO[C@H]1[C@@H](O)[C@@H](C)O[C@H](O[C@H]2[C@H](Oc3cccc4c(OC(=O)COC(=O)c5ccccc5)c5c(=O)oc6ccc(C)c7c(=O)oc(c34)c5c67)O[C@H](C)[C@@H]3OC(C)(C)O[C@@H]32)[C@@H]1O [compound 199] | ≥ 60 mg/kg | – | – | – | response vs control in vivo at 50 mg/kg (P-388 leukemia cells; BDF1 mice, P-388 i.p.): 159%
COC1C(O)C(C)OC(OC2C(Oc3cccc4c(OC(=O)CCCO)c5c(=O)oc6ccc(C)c7c(=O)oc(c34)c5c67)OC(C)C3OC(c4ccccc4)OC32)C1O (stereo not drawn) [Compound No. 147, 6-O-(4-Hydroxy-n-Butyryl)-3',4'-O-Benzylidene-Chartreusin] | ≥ 40 mg/kg | – | 214% | – | –
COC1C(O)C(C)OC(OC2C(Oc3cccc4c(OC(=O)CNC(=O)OCc5ccccc5)c5c(=O)oc6ccc(C)c7c(=O)oc(c34)c5c67)OC(C)C3OC(C)(C)OC32)C1O (stereo not drawn) [compound 108, 6-O-(N-carbobenzyloxyglycyl)-3',4'-O-isopropylidene-chartreusin] | ≥ 100 mg/kg | – | – | – | response vs control in vivo at 50 mg/kg (P-388 leukemia cells; BDF1 mice, P-388 i.p.): 163%
COC1C(O)C(C)OC(OC2C(Oc3cccc4c(OC(=O)c5ccc(Br)cc5)c5c(=O)oc6ccc(C)c7c(=O)oc(c34)c5c67)OC(C)C3OC(c4ccccc4)OC32)C1O (stereo not drawn) [compound 229] | ≥ 80 mg/kg | – | – | – | response vs control in vivo at 60 mg/kg (P-388 leukemia cells; BDF1 mice, P-388 i.p.): 167%
CO[C@H]1[C@@H](O)[C@@H](C)O[C@H](O[C@H]2[C@H](Oc3cccc4c(OC(=O)COc5ccccc5)c5c(=O)oc6ccc(C)c7c(=O)oc(c34)c5c67)O[C@H](C)[C@@H]3OC(C)(C)O[C@@H]32)[C@@H]1O [compound 205] | ≥ 80 mg/kg | 153% | – | 173% | –
COC1C(O)C(C)OC(OC2C(Oc3cccc4c(OC(=O)CN(C)C(=O)C(F)(F)F)c5c(=O)oc6ccc(C)c7c(=O)oc(c34)c5c67)OC(C)C3OC(C)(C)OC32)C1O (stereo not drawn) [compound 86] | ≥ 100 mg/kg | – | – | 136% | –
CCN(CC)CCC(=O)Oc1c2cccc(OC3OC(C)C4OC(c5ccccc5)OC4C3OC3OC(C)C(O)C(OC)C3O)c2c2oc(=O)c3c(C)ccc4oc(=O)c1c2c43 (stereo not drawn) [Compound No. 8, 6-O-(N,N-Diethyl-β-Alanyl)-3',4'-O-Benzylidene-Chartreusin Hydrochloride] | ≥ 40 mg/kg | 220% | 186% | – | –
COc1ccc(C2OC3C(C)OC(Oc4cccc5c(OC(=O)CCNC=O)c6c(=O)oc7ccc(C)c8c(=O)oc(c45)c6c78)C(OC4OC(C)C(O)C(OC)C4O)C3O2)cc1 (stereo not drawn) [compound 95] | ≥ 40 mg/kg | 173% | – | – | –
COC1C(O)C(C)OC(OC2C(Oc3cccc4c(OC(=O)C(Cc5c[nH]c6ccccc56)NC(=O)OCc5ccccc5)c5c(=O)oc6ccc(C)c7c(=O)oc(c34)c5c67)OC(C)C3OC(C)(C)OC32)C1O (stereo not drawn) [compound 126] | ≥ 100 mg/kg | – | – | 150% | –
C=CCCC(=O)Oc1c2cccc(OC3OC(C)C4OC(c5cccc([N+](=O)[O-])c5)OC4C3OC3OC(C)C(O)C(OC)C3O)c2c2oc(=O)c3c(C)ccc4oc(=O)c1c2c43 (stereo not drawn) [Compound No. 160] | ≥ 80 mg/kg | 160% | – | 218% | –
COC1C(O)C(C)OC(OC2C(Oc3cccc4c(OC(=O)CCNC=O)c5c(=O)oc6ccc(C)c7c(=O)oc(c34)c5c67)OC(C)C3OC(c4ccsc4)OC32)C1O (stereo not drawn) [compound 81] | ≥ 40 mg/kg | 173% | 139% | – | –
COC1C(O)C(C)OC(OC2C(Oc3cccc4c(OC(=O)CCN)c5c(=O)oc6ccc(C)c7c(=O)oc(c34)c5c67)OC(C)C3OC(c4cccc(F)c4)OC32)C1O (stereo not drawn) [Compound No. 16, 6-O-(β-alanyl)-3',4'-O-(m-fluorobenzylidene)-chartreusin phosphate] | ≥ 40 mg/kg | 242% | 164% | – | –
COC1C(O)C(C)OC(OC2C(Oc3cccc4c(OC(=O)C(C)CN)c5c(=O)oc6ccc(C)c7c(=O)oc(c34)c5c67)OC(C)C3OC(c4ccccc4)OC32)C1O (stereo not drawn) [Compound No. 6, 6-O-(β-Amino-Isobutyryl)-3',4'-O-Benzylidene-Chartreusin Phosphate] | ≥ 40 mg/kg | 242% | 182% | – | –
CO[C@H]1[C@@H](O)[C@@H](C)O[C@H](O[C@H]2[C@H](Oc3cccc4c(OC(=O)CCC(=O)c5ccc(F)cc5)c5c(=O)oc6ccc(C)c7c(=O)oc(c34)c5c67)O[C@H](C)[C@@H]3OC(C)(C)O[C@@H]32)[C@@H]1O [compound 206] | ≥ 80 mg/kg | 139% | – | 180% | –
COC1C(O)C(C)OC(OC2C(Oc3cccc4c(OC(=O)CCN)c5c(=O)oc6ccc(C)c7c(=O)oc(c34)c5c67)OC(C)C3OC(C)(C)OC32)C1O (stereo not drawn) [compound 42, 6-O-(β-alanyl)-3',4'-O-isopropylidene-chartreusin hydrochloride] | ≥ 100 mg/kg | – | – | 187% | –
COC1C(O)C(C)OC(OC2C(Oc3cccc4c(OC(=O)CCNC(=O)OCc5ccccc5)c5c(=O)oc6ccc(C)c7c(=O)oc(c34)c5c67)OC(C)C3OC(c4cccc(F)c4)OC32)C1O (stereo not drawn) [compound 73] | ≥ 40 mg/kg | 229% | 176% | – | –
COC1C(O)C(C)OC(OC2C(Oc3cccc4c(OC(=O)C5CCCCC5NC(=O)C(F)(F)F)c5c(=O)oc6ccc(C)c7c(=O)oc(c34)c5c67)OC(C)C3OC(c4ccccc4)OC32)C1O (single isomer, unassigned) [Compound No. 118, 6-O-(N-Trifluoroacetyl-2-Amino-Cyclohexanecarbonyl)-3',4'-O-Benzylidene-Chartreusin] | ≥ 40 mg/kg | – | – | – | T/C (%) of MST (P-388 leukemia cells; [2]): 135%

From patent US4760136A, “Chartreusin derivatives and salts thereof” (Ishihara Sangyo Kaisha, Ltd., priority 1984, dated 1988)
